# Laboratory results as given in PubChem BioAssay (NCI).
#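 The compound was tested at five concentrations on cells cultured in 96-well plates, with a 48-hour exposure period. Definition used: TGI = concentration required for complete inhibition of growth.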 *1 amine or outer side, *2 acyl side, *3 side chain or, on linkers, in order; H or OH if unused. Where a SMILES comes first, the peptide text is derived from it. Bridges are numbered along the chain shown (N, C = ends). Roman numbers before positions name the chains, in order. [ ]: non-standard residue; d: D form. The star is where a group is joined. ξ: configuration not given here. X54 = N=C(N)NCCC[C@@H](NC(=N)CCCCCCC(=N)N[C@H](CCCNC(=N)N)C(=O)[*:2])C(=O)[*:1]; dIgl = N[C@@H](C(=O)O)C1Cc2ccccc2C1; Hyp = O=C(O)[C@@H]1C[C@@H](O)CN1; ξIgl = NC(C(=O)O)C1Cc2ccccc2C1; ξOic = O=C(O)C1CC2CCCCC2N1; ξR = N=C(N)NCCCC(N)C(=O)O; Boc = CC(C)(C)OC(=O)*; ξP = O=C(O)C1CCCN1; ξS = NC(CO)C(=O)O
# Tests used:
# Experiment in all cases: NCI tumour cell line growth inhibition, 48 h
# CCRF-CEM leukemia = system: CCRF-CEM leukemia
# IGROV1 ovarian = system: IGROV1 ovarian
# MALME-3M melanoma = system: MALME-3M melanoma
# NCI/ADR-RES ovarian = system: NCI/ADR-RES ovarian
# OVCAR-5 ovarian = system: OVCAR-5 ovarian
# OVCAR-8 ovarian = system: OVCAR-8 ovarian
# SF-295 CNS = system: SF-295 CNS
# SF-539 CNS = system: SF-539 CNS
# SK-MEL-5 melanoma = system: SK-MEL-5 melanoma
# SK-OV-3 ovarian = system: SK-OV-3 ovarian
# U251 CNS = system: U251 CNS
SMILES,TGI (CCRF-CEM leukemia) [µM],TGI (IGROV1 ovarian) [µM],TGI (MALME-3M melanoma) [µM],TGI (NCI/ADR-RES ovarian) [µM],TGI (OVCAR-5 ovarian) [µM],TGI (OVCAR-8 ovarian) [µM],TGI (SF-295 CNS) [µM],TGI (SF-539 CNS) [µM],TGI (SK-MEL-5 melanoma) [µM],TGI (SK-OV-3 ovarian) [µM],TGI (U251 CNS) [µM]
COC(=O)C(Cc1ccccc1)NC(=O)C(CS)NC(=O)OC(C)(C)C (stereo not drawn) (Boc-Cys-Phe-OMe; configuration not given here),89.3,> 100,> 100,> 100,> 100,> 100,> 100,> 100,> 100,> 100,> 100
Cc1ccc(S(=O)(=O)N2CCC[C@@H]2C(=O)O[C@@H]2CCC3CC=CC32)cc1 (some centres undefined),> 100,> 100,90,63.2,> 100,> 100,> 100,> 100,29.2,48.3,> 100
CN(c1ccccc1)S(=O)(=O)c1ccc([N+](=O)[O-])cc1,–,–,> 100,> 100,> 100,> 100,> 100,> 100,–,–,> 100
Cc1cc2c(c(C(=O)NCC(=O)N[C@@H](C)C(=O)OCc3ccccc3)c1)Oc1c(cc(C)cc1C(=O)NCC(=O)N[C@@H](C)C(=O)OCc1ccccc1)S2,> 100,> 100,44.2,> 100,> 100,> 100,> 100,–,> 100,> 100,> 100
COc1cc(C2c3cc4c(cc3OC(NNC(N)=O)C2C)OCO4)cc(OC)c1OC (centres undefined),0.507,> 100,> 100,> 100,> 100,> 100,0.425,0.165,22.8,> 100,–
CC(C)C(Nc1ncnc2nc[nH]c12)C(=O)O (centres undefined),> 100,> 100,> 100,> 100,> 100,> 100,> 100,–,> 100,> 100,> 100
CCOC(=O)/C=C(/C(=O)OCC)n1cc(C)c(=O)n(Cc2cnnn2COCCOC(C)=O)c1=O,5.8,32.7,13.3,61.3,36.9,29.1,> 100,19.4,51.5,> 100,57.1
CCN1c2ccccc2NC(=S)c2c1n[nH]c2-c1ccccc1,49.4,> 100,–,60.9,> 100,> 100,59.3,> 100,43.2,> 100,50.1
Cc1cc2cc3cc(C)c(N)cc3nc2cc1N,2.52,1.7,2.72,9.83,2.65,2.2,1.41,–,14.6,–,–
O=c1[nH]c2ccccc2c(O)c1Cc1ccccc1,> 100,> 100,> 100,> 100,> 100,> 100,> 100,> 100,> 100,–,> 100
CN(C)CN1CSC(=S)N(CN(C)C)C1,> 100,> 100,> 100,> 100,> 100,> 100,> 100,–,> 100,–,> 100
CCn1c2nc(=O)n(CCCCCCCCSC(c3ccccc3)(c3ccccc3)c3ccccc3)c(=O)c-2nc2ccccc21,> 100,> 100,–,> 100,> 100,> 100,> 100,> 100,22.9,> 100,> 100
COC(=O)c1c(O)ccc2c1c1cc3ccccc3cc1n2Cc1cc(OC)cc(OC)c1,> 100,1.69,64.3,> 29.2,> 100,> 100,7.18,–,18.5,–,> 100
Nc1nc(Cl)cc(OCC2(CO)CCCC2)n1,> 100,> 100,> 100,> 100,> 100,> 100,> 100,> 100,> 100,–,> 100
O=c1cc(-c2ccccc2)[nH]c2ncccc12,> 100,> 100,> 100,0.414,> 100,4.01,0.269,–,> 60.6,1.89,–
CC(C)=CC1C(C(=O)Oc2ccccc2C(C)C)C1(C)C (centres undefined),59.6,> 100,34.1,> 100,48.8,> 100,33.8,–,33.9,> 100,33.6
N=C(N)NCCCC(NC(=O)C1CC2CCCCC2N1C(=O)[C@H](NC(=O)C(CO)NC(=O)C(NC(=O)CNC(=O)[C@@H]1C[C@@H](O)CN1C(=O)C1CCCN1C(=O)C(CCCNC(=N)N)NC(=O)[C@@H](CCCNC(=N)N)NC(=N)CCCCCCC(=N)N[C@H](CCCNC(=N)N)C(=O)NC(CCCNC(=N)N)C(=O)N1CCCC1C(=O)N1C[C@H](O)C[C@H]1C(=O)NCC(=O)NC(C(=O)NC(CO)C(=O)N[C@@H](C(=O)N1C(C(=O)NC(CCCNC(=N)N)C(=O)O)CC2CCCCC21)C1Cc2ccccc2C1)C1Cc2ccccc2C1)C1Cc2ccccc2C1)C1Cc2ccccc2C1)C(=O)O (some centres undefined) (I: [ξR][ξP][Hyp]G[ξIgl][ξS][dIgl][ξOic][ξR]-OH / II: [ξR][ξP][Hyp]G[ξIgl][ξS][dIgl][ξOic][ξR]-OH; linker I:N-II:N via X54),8.81,> 10,5.1,> 10,> 10,–,4.3,5.32,3.62,3.74,5.35
CSc1ncc2c(n1)-c1ccccc1OC2N1CCOCC1 (centres undefined),> 100,> 100,–,> 100,> 100,> 100,> 100,> 100,> 100,> 100,> 100
CC(=O)OCC1OC(N2C(=O)NC(=O)C3C=C4CCCCC4=CC32)CC1OC(C)=O (centres undefined),–,> 100,> 100,> 100,> 100,> 100,> 100,> 100,–,> 100,> 100
Cc1nnc(N)nc1/C=C\c1ccc(Cl)cc1Cl,86.4,39.4,59.3,> 100,> 100,> 100,53.8,–,81.5,> 100,> 100
